Results published in patent US10960037B2, “Method of treating neurological conditions with extract of Nerium species or Thevetia species” (PHOENIX BIOTECHNOLOGY, INC., priority 2010, dated 2021).
“Also recorded” adds a separate entry of the source.

Assays:
[1] = system: ARE target genes Gclm, Nqo1, Srx, Hmox1; test: ARE target gene expression by qPCR, rat co-cultures; format: cell-based; conditions: for expression of ARE target genes: 6 h
Method: FIG. 17 depicts the results of expression assays for Fraction 0-4 and the individual triterpenes oleanolic acid, ursolic acid, betulinic acid and uvaol. “X” symbols denote concentrations of compounds which induced toxicity and for which recovery of residual mRNA was insufficient to support qPCR analysis. Rat primary corticostriatal co-cultures were treated for 6 h with Fraction 0-4 (in μg/ml) or oleanolic acid, ursolic acid, betulinic acid, or uvalol (all in μM) at the concentrations indicated, then harvested and processed for qPCR analysis of the ARE target genes shown. Quantitative RNA values were normalized to the GAPDH reference control and fold-expression changes are expressed relative to the DMSO-carrier only condition (“--”) set to a value of 1. Dark bars denote statistically significant differences with respect to the DMSO-carrier only control by a Student's t-test at p<0.05.
FIG. 18 depicts the results of expression assays for Fraction 0-4 and the individual triterpenes ursolic acid and betulinic acid at more similar concentration ranges. Rat primary corticostriatal co-cultures were treated for 6 h with Fraction 0-4 (in μg/ml) or ursolic acid and betulinic acid (in μM) at the concentrations indicated, then harvested and processed for qPCR analysis of the ARE target genes shown. Quantitative RNA values were normalized to the GAPDH reference control and fold-expression changes are expressed relative to the DMSO-carrier only condition (“--”) set to a value of 1. Dark blue bars denote statistically significant differences with respect to the DMSO-carrier only control by a Student's t-test at p<0.05.
For qPCR quantification of ARE target gene expression levels, cortical and striatal neurons were plated onto 96-well plates containing mature glial cultures and cultured for 96 h. Fraction 0-4 was added to cultures at the indicated concentrations for 6 h. At the end of the treatment period, cells were lysed and total RNA was isolated using Absolutely RNA mini-prep kits (Agilent Technologies/Stratagene). cDNA was generated using oligo dT primers and Superscript II reverse transcriptase (Invitrogen). Resulting cDNA was used for quantitative PCR of gene transcripts using SYBR Green Real-Time PCR Master Mix (Life Technologies) and the following mouse primers, for: Gclc (forward-5′ […]-3′ and reverse-5′-[…]-3′), Nqo1 (forward-5′-GCCCGCATGCAGATCCT-3′ and reverse 5′-[…]3′), Srx (forward-5′-[…]-3′ and reverse-5′-[…]-3′), and Hmox1 (forward-5′-[…]-3′ and reverse-5′-[…]-3′) (Integrated DNA Technologies). […] Each biological sample was measured in triplicate on a ViiA 7 real-time PCR instrument (Applied Biosystems); fold expression was calculated after normalization to corresponding control GAPDH levels.

[2] = system: cortical pyramidal neurons in APP-transfected brain slices; test: Brain slice APP/Aβ-induced degeneration "Alzheimer's" assay; format: cell-based, rat; conditions: result in words
From the text: Example 9 provides a detailed description of an in vitro assay used to evaluate the efficacy of the extract for the treatment of Alzheimer's disease. The assay is a brain slice-based assay for APP/Aβ-induced (APP: amyloid precursor protein) degeneration of cortical pyramidal neurons. Upon cleavage by a secretase enzyme, the APP is reduced to Aβ peptides which are believed to be a causative factor in beta-amyloid plaque formation. Aβ proteins are associated with beta-amyloid plaque formation and are believed to be a hallmark if not etiologic factor in Alzheimer's disease. […]
The APP-WT brain slice-based Alzheimer's assay was repeated (Example 11) using fractions of the SCF extract of Nerium oleander. The number of healthy cortical neurons was determined following APP/Aβ-induced degeneration in the presence of varying amounts of fraction 0-4A of the SCF extract (0.01 to 100 μg/ml). […]
(§1) For all brain slice assays, numbers of healthy pyramidal neurons in the cortical regions of each brain slice were imaged on a Leica MZIIIFL fluorescence stereomicroscope. Cortical pyramidal neurons were readily identified by their characteristic positions and orientations in the cortical plate, and by their prominent extension of a single, apical dendrite radially towards the pial surface. […]

[3] = system: cortical and striatal neurons transfected with mutant htt; test: Cortico-striatal co-culture "Huntington's disease" assay; format: cell-based
From the text: Example 10 provides a detailed description of an assay used to evaluate the efficacy of the extract (or fraction thereof) for the treatment of Huntington's disease. Mutant htt protein is introduced via electroporation into high-density, mixed co-cultures of cortical neurons, striatal neurons, and glia. The striatal and cortical neurons are transfected with different color fluorescent proteins thereby facilitating the separate identification of the different types of neurons in the co-culture. The color fluorescent proteins are fluorescent and ‘emit’ color upon activation with a light source of appropriate wavelength. […] Such other agents can be used along with or in the absence of oleandrin or other cardiac glycoside.
In this assay, instead of using intact brain slices, mutant htt is introduced via electroporation into high-density, mixed co-cultures of cortical neurons, striatal neurons, and glia arrayed in 96-well plates. […] In this assay, over the course of 1-2 weeks in vitro, transfected mutant htt constructs induce the progressive degeneration of both striatal and cortical neurons that are subsequently quantified using automated image acquisition and object detection algorithms on the Cellomics Arrayscan VTI platform. […] In a full run, some 25,000 images are collected and analyzed in each cycle, 4 cycles per week. […]

[4] = system: healthy cortical pyramidal neurons in brain slices subjected to OGD; test: Brain slice-based oxygen-glucose deprivation (OGD) "stroke" neuroprotection assay; format: cell-based, Sprague-Dawley rat; conditions: result in words
Method: Example 8 provides a detailed description of an in vitro assay used to evaluate the efficacy of the extract, or fraction thereof, or composition thereof, for the treatment of stroke-mediated ischemic neuronal injury. The assay is a brain slice-based assay for oxygen and glucose deprivation (OGD) used to induce 50% loss of healthy cortical neurons by 24 hours. The parent unfractionated SCF extract of Nerium species, e.g. Nerium oleander, is used as a positive control. The parent extract is then fractionated according to Example 13 to provide a fraction of extract of Nerium species. The fractions are analyzed according to Examples 6, 14 and 17.
Neocortical brain slices were prepared from PND 7 Sprague-Dawley rat pups. The cerebral cortex was dissected, cut into 400-μ-thick slices and transferred into a container containing cold artificial cerebrospinal fluid with 1 μM MK-801 before plating; MK-801 was not included in any subsequent procedures. To mimic ischemic injury using transient oxygen-glucose deprivation (OGD), slices from one hemisphere of each brain were exposed to glucose-free, N2-bubbled artificial cerebrospinal fluid for 7.5 min in a low 02 (0.5%) environment. The OGD slices were then plated side-by-side with control slices from the contralateral hemisphere on nitrocellulose or Millicell (Millipore) permeable membranes, which were prepared identically except for no OGD. Thirty minutes after plating, the brain slice pairs were transfected, transferred to 24-well plates, and incubated at 37° C. under 5% CO2 in humidified chambers. In each experiment, 5-6 minutes of oxygen-glucose deprivation (OGD) was used to induce >50% loss of healthy cortical neurons by 24 hrs. A set concentration (3 μM) of neriifolin (a cardiac glycoside) was used as the internal positive control. […] A neuroprotective composition can be used as described herein for oleandrin.
Coronal brain slices (250 μm thick) were prepared from postnatal day 10 Sprague-Dawley rat pups of either gender (Charles River) and established in organotypic culture. Animals were sacrificed in accordance with NIH guidelines and under Duke IACUC approval and oversight. […]
as §1

[5] = system: cortical neurons in "non-OGD" brain slices; test: Non-stroke (non-OGD) brain slice assay; format: cell-based, Sprague-Dawley rat; conditions: sliced and YFP-transfected, no OGD
Method: Neuroprotective composition, oleandrin, PBI-05204 (an unfractionated SCF extract of Nerium oleander) or a fraction of the extract (PBI-04711) were tested on “nonstroked” brain slices; that is, ones that were sliced and transfected with YFP but not subjected to additional trauma via OGD. See experimental procedure outlined above.

C=C(C)[C@@H]1CC[C@]2(C(=O)O)CC[C@]3(C)[C@H](CC[C@@H]4[C@@]5(C)CC[C@H](O)C(C)(C)[C@@H]5CC[C@]43C)[C@@H]12 [Betulinic acid, betulinic acid] was tested, and the toxicity in co-cultures [1] was “toxicity at higher concentrations”.
CO[C@H]1C[C@H](O[C@H]2CC[C@@]3(C)[C@H](CC[C@@H]4[C@@H]3CC[C@]3(C)[C@@H](C5=CC(=O)OC5)[C@@H](OC(C)=O)C[C@]43O)C2)O[C@@H](C)[C@@H]1O [Oleandrin, oleandrin] was tested, and the “neuroprotection in APP brain slice assay” value [2] was “concentration-dependent neuroprotection”, the “potency relative to KW6002” value ([3]; FIGS. 3A-3D) was about 100 fold and the “efficacy (surviving neurons) in cortico-striatal co-culture assay” value ([3]; result in words) was “more effective than KW6002; also recorded: strongest hits; also recorded: on par with KW6002”.
With CC1(C)CC[C@]2(C(=O)O)CC[C@]3(C)C(=CC[C@@H]4[C@@]5(C)CC[C@H](O)C(C)(C)[C@@H]5CC[C@]43C)[C@@H]2C1 [Oleanolic acid, oleanolic acid] the cellular toxicity [4] was “not exhibited observable cellular toxicity”, the “neuroprotection in brain slice OGD assay” value [4] was “robust neuroprotection” and the “neuroprotection in brain slice OGD assay” value ([4]; listed as OA) was “accounts for a majority of the neuroprotective activity; also recorded: substantially higher activity than UA”. For the same compound, the “expression of ARE target genes” value [1] was “robust upregulation of canonical ARE target genes”.
With C[C@H]1[C@H](C)CC[C@]2(C(=O)O)CC[C@]3(C)C(=CC[C@@H]4[C@@]5(C)CC[C@H](O)C(C)(C)[C@@H]5CC[C@]43C)[C@H]12 [Ursolic acid, ursolic acid] the “neuroprotection in brain slice OGD assay” value ([4]; listed as UA) was “lower activity; also recorded: rise and fall in activity as concentration is increased”, the “expression of ARE target genes” value [1] was “robust upregulation of canonical ARE target genes; also recorded: clear upregulation of Srx and Hmox1” and the “expression of ARE target genes” value ([1]; listed as UA) was “due more so to the activity of UA than of OA or BA”.
For CO[C@H]1[C@H](O)[C@H](O[C@H]2CC[C@@]3(C)[C@H](CC[C@@H]4[C@@H]3CC[C@]3(C)[C@@H](C5=CC(=O)OC5)CC[C@]43O)C2)O[C@@H](C)[C@@H]1O [neriifolin], the “neuroprotection of non-OGD brain slices” value [5] was “modest levels of neuroprotection”.
